Laboratory results taken from patent publication US20260265244A1, “HETEROCYCLIC COMPOUNDS AS STING ANTAGONISTS” (Boehringer Ingelheim International GmbH, priority 2022, published 2026).

What was measured:
[1] = molecular target: T1, cGAMP binding domain of wild-type (GRR) human STING, residues 155-341 (Homo sapiens, UniProt Q86WV6, H232R); assay: Increase of stability of STING protein against thermal denaturation, Differential Scanning Fluorimetry (DSF)
T1 construct: His-TEV-hSTING (WT); TEV protease cleavage site (N); made in house; host or cells: E. coli BL21 DE3
Summary of the method: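 3 µM His-tagged protein with 100 uM compound, 5×SYPRO Orange, 2% DMSO in 20 mM Tris, 150 mM NaCl, pH7.5; 15–95 °C ramp in 0.5 °C steps (15 s/cycle). Tm from Boltzmann fit of the dye melt curve, duplicates averaged, repeated if SD>1.5 °C; ΔTm = Tm with compound minus Tm of protein alone.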

human STING WT (R232) = molecular target: T2, human STING WT (R232) (Homo sapiens, UniProt Q86WV6, H232R); assay: Human STING HTRF binding assay (competitive, Cisbio 64BDSTGPEG)
T2 construct: purchased Cisbio 64BDSTGPEG
Summary of the method: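 Competitive HTRF: 6His-tagged human STING WT R232 binding domain (residues 138-379) with anti-6His Cryptate antibody and d2-labeled STING ligand, 180 min at room temperature, 1% DMSO, 8 concentrations from 10 μM or 1 μM top in ~1:5 steps. HTRF ratios were calibrated to a cGAMP standard curve and IC50 obtained by 4-parameter logistic fit.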

T2 sequence (Q86WV6 138-379 H232R): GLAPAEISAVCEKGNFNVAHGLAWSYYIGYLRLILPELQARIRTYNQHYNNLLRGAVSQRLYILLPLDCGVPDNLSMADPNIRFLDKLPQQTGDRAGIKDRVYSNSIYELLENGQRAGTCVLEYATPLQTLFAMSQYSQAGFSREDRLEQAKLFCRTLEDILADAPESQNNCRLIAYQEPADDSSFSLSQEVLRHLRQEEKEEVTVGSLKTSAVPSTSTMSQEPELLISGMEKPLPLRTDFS
T1 sequence (Q86WV6 with tags, fused parts or gaps H232R): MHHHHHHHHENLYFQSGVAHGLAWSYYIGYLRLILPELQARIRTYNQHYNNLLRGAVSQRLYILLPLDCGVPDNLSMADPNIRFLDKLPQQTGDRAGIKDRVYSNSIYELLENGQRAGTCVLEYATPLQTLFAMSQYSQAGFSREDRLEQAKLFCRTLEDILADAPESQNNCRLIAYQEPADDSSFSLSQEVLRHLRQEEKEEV

| Compound | DSF [1] [K] | IC50 (human STING WT (R232)) [nM] |
| --- | --- | --- |
| [2H][C@](O)(Cn1cc2c(-c3nn(-c4cc5cn(C)nc5nc4C)c(C)c3C(C)C)cccc2n1)c1ccccc1 [Example 3, (1R)-2-[4-(1-{2,6-dimethyl-2H-pyrazolo[3,4-b]pyridin-5-yl}-5-methyl-4-(propan-2-yl)-1H-pyrazol-3-yl)-2H-indazol-2-yl]-1-phenyl(1-^2H)ethan-1-ol] | 28 | 5.1 |
| Cc1nc2nn(C)cc2cc1-n1nc(-c2cccc3nn(C[C@H](OCCC(C)(C)O)c4ccccc4)cc23)c(C(C)C)c1C [Example 74, 4-[(1R)-2-[4-(1-{2,6-dimethyl-2H-pyrazolo[3,4-b]pyridin-5-yl}-5-methyl-4-(propan-2-yl)-1H-pyrazol-3-yl)-2H-indazol-2-yl]-1-phenylethoxy]-2-methylbutan-2-ol] | 25 | 16.9 |
| COC(C)c1nc2nn(C)cc2cc1-n1nc(-c2cccc3nn(C[C@H](O)c4ccccc4)cc23)c(C(C)C)c1C (some centres unmarked) [Example 75] | 28 | 9.8 |
| Cc1c(C(C)C)c(-c2cccc3nn(C[C@H](O)c4ccccc4)cc23)nn1-c1ccn2c(C(F)F)nnc2c1C1CC1 [Example 76] | 26 | 17.4 |
| Cc1nc2nn(C)cc2cc1-n1nc(-c2cccc3nn(C[C@H](OCCF)c4ccccc4)cc23)c(C(C)C)c1C [Example 78, 4-(1-{2,6-dimethyl-2H-pyrazolo[3,4-b]pyridin-5-yl}-5-methyl-4-(propan-2-yl)-1H-pyrazol-3-yl)-2-[(2R)-2-(2-fluoroethoxy)-2-phenylethyl]-2H-indazole] | 24 | 16.7 |
| C=CCO[C@@H](Cn1cc2c(-c3nn(-c4cc5cn(C)nc5nc4C)c(C)c3C(C)C)cccc2n1)c1ccccc1 [Example 79, 4-(1-{2,6-dimethyl-2H-pyrazolo[3,4-b]pyridin-5-yl}-5-methyl-4-(propan-2-yl)-1H-pyrazol-3-yl)-2-[(2R)-2-phenyl-2-(prop-2-en-1-yloxy)ethyl]-2H-indazole] | 23 | 20.1 |
| Cc1c(C(C)C)c(-c2cccc3nn(C[C@H](O)c4ccccc4)cc23)nn1-c1cc2cn(C)nc2nc1C1(C)CC1 [Example 80, (1R)-2-(4-{5-methyl-1-[2-methyl-6-(1-methylcyclopropyl)-2H-pyrazolo[3,4-b]pyridin-5-yl]-4-(propan-2-yl)-1H-pyrazol-3-yl}-2H-indazol-2-yl)-1-phenylethan-1-ol] | 26 | 17.5 |
| CCCO[C@@H](Cn1cc2c(-c3nn(-c4cc5cn(C)nc5nc4C)c(C)c3C(C)C)cccc2n1)c1ccccc1 [Example 81, 4-(1-{2,6-dimethyl-2H-pyrazolo[3,4-b]pyridin-5-yl}-5-methyl-4-(propan-2-yl)-1H-pyrazol-3-yl)-2-[(2R)-2-phenyl-2-propoxyethyl]-2H-indazole] | 22 | 31.1 |
| Cc1cc([C@@H](O)Cn2cc3c(-c4nn(-c5cc6cn(C)nc6nc5C)c(C)c4C(C)C)cccc3n2)ccn1 [Example 82, (1R)-2-[4-(1-{2,6-dimethyl-2H-pyrazolo[3,4-b]pyridin-5-yl}-5-methyl-4-(propan-2-yl)-1H-pyrazol-3-yl)-2H-indazol-2-yl]-1-(2-methylpyridin-4-yl)ethan-1-ol] | 27 | 3.2 |
| Cc1nc2nn(C)cc2cc1-n1nc(-c2cccc3nn(CC(O)C4CCCCC4)cc23)c(C(C)C)c1C (centres unmarked) [Example 83, 1-cyclohexyl-2-[4-(1-{2,6-dimethyl-2H-pyrazolo[3,4-b]pyridin-5-yl}-5-methyl-4-(propan-2-yl)-1H-pyrazol-3-yl)-2H-indazol-2-yl]ethan-1-ol] | 24 | 23.7 |
| CNc1nc2nn(C)cc2cc1-n1nc(-c2cccc3nn(C[C@H](O)c4ccccc4)cc23)c(C(C)C)c1C [Example 84, (1R)-2-(4-{5-methyl-1-[2-methyl-6-(methylamino)-2H-pyrazolo[3,4-b]pyridin-5-yl]-4-(propan-2-yl)-1H-pyrazol-3-yl}-2H-indazol-2-yl)-1-phenylethan-1-ol] | 27 | 21 |
| COCCO[C@@H](Cn1cc2c(-c3nn(-c4cc5cn(C)nc5nc4C)c(C)c3C(C)C)cccc2n1)c1ccccc1 [Example 85, 4-(1-{2,6-dimethyl-2H-pyrazolo[3,4-b]pyridin-5-yl}-5-methyl-4-(propan-2-yl)-1H-pyrazol-3-yl)-2-[(2R)-2-(2-methoxyethoxy)-2-phenylethyl]-2H-indazole] | 23 | 15.9 |
| Cc1c(-n2nc(-c3cccc4nn(C[C@H](O)c5ccccc5)cc34)c(C(C)C)c2C)ccn2c(C)nnc12 [Example 86, (1R)-2-[4-(1-{3,8-dimethyl-[1,2,4]triazolo[4,3-a]pyridin-7-yl}-5-methyl-4-(propan-2-yl)-1H-pyrazol-3-yl)-2H-indazol-2-yl]-1-phenylethan-1-ol] | 28 | 6.9 |
| Cc1c(C(C)C)c(-c2cccc3nn(C[C@H](O)c4ccccc4)cc23)nn1-c1cc2cn(C)nc2nc1N(C)C [Example 87, (1R)-2-(4-{1-[6-(dimethylamino)-2-methyl-2H-pyrazolo[3,4-b]pyridin-5-yl]-5-methyl-4-(propan-2-yl)-1H-pyrazol-3-yl}-2H-indazol-2-yl)-1-phenylethan-1-ol] | 24 | 20.2 |
| Cc1nc2nn(C)cc2cc1-n1nc(-c2cccc3nn(CC(O)c4ccc(Br)cc4)cc23)c(C(C)C)c1C (centres unmarked) [Example 88, 1-(4-Bromophenyl)-2-[4-(1-{2,6-dimethyl-2H-pyrazolo[3,4-b]pyridin-5-yl}-5-methyl-4-(propan-2-yl)-1H-pyrazol-3-yl)-2H-indazol-2-yl]ethan-1-ol] | 25 | 97.9 |
| Cc1c(C(C)C)c(-c2cccc3nn(C[C@H](O)c4ccccc4)cc23)nn1-c1cc2cn(C)nc2nc1C(C)(C)O [Example 89, 2-[5-(3-{2-[(2R)-2-hydroxy-2-phenylethyl]-2H-indazol-4-yl}-5-methyl-4-(propan-2-yl)-1H-pyrazol-1-yl)-2-methyl-2H-pyrazolo[3,4-b]pyridin-6-yl]propan-2-ol] | 24 | 17.2 |
| Cn1cc2cc(-c3nc(-c4cccc5nn(C[C@H](O)c6ccc(OCC#N)cc6)cc45)c(C4CC4)n3C)c(C3CC3)nc2n1 [Example 90, 2-{4-[(1R)-2-[4-(5-cyclopropyl-2-{6-cyclopropyl-2-methyl-2H-pyrazolo[3,4-b]pyridin-5-yl}-1-methyl-1H-imidazol-4-yl)-2H-indazol-2-yl]-1-hydroxyethyl]phenoxy} acetonitrile] | 29 | 19.9 |
| Cn1cc([C@@H](O)Cn2cc3c(-c4nc(-c5cc6cn(C)nc6nc5C5CC5)n(C)c4C4CC4)cccc3n2)cn1 [Example 91, (1R)-2-[4-(5-cyclopropyl-2-{6-cyclopropyl-2-methyl-2H-pyrazolo[3,4-b]pyridin-5-yl}-1-methyl-1H-imidazol-4-yl)-2H-indazol-2-yl]-1-(1-methyl-1H-pyrazol-4-yl)ethan-1-ol] | 29 | 7.6 |
| Cc1nc2nn(C)cc2cc1-n1nc(-c2cccc3nn(C[C@H](O)c4ccccc4)cc23)c(C2(C)CC2)c1C [Example 92, (1R)-2-[4-(1-{2,6-Dimethyl-2H-pyrazolo[3,4-b]pyridin-5-yl}-5-methyl-4-(1-methylcyclopropyl)-1H-pyrazol-3-yl)-2H-indazol-2-yl]-1-phenylethan-1-ol] | 24 | 4.3 |
| CCc1c(-c2cccc3nn(C[C@H](O)c4ccccc4)cc23)nn(-c2cc3cn(C)nc3nc2C)c1CC [Example 93, (1R)-2-[4-(1-{2,6-dimethyl-2H-pyrazolo[3,4-b]pyridin-5-yl}-4,5-diethyl-1H-pyrazol-3-yl)-2H-indazol-2-yl]-1-phenylethan-1-ol] | 26 | 17.4 |
| Cc1c(-n2nc(-c3cccc4nn(C[C@H](O)c5ccccc5)cc34)c(C(C)C)c2C)ccn2c(C)cnc12 [Example 94, (1R)-2-[4-(1-{3,8-dimethylimidazo[1,2-a]pyridin-7-yl}-5-methyl-4-(propan-2-yl)-1H-pyrazol-3-yl)-2H-indazol-2-yl]-1-phenylethan-1-ol] | 27 | 17.1 |
| Cc1nc2nn(C)cc2cc1-n1nc(-c2cccc3nn(C[C@H](O)c4ccccc4)cc23)c(C(C)CO)c1C (stereo partly drawn) [Example 95, 2-(1-{2,6-dimethyl-2H-pyrazolo[3,4-b]pyridin-5-yl}-3-{2-[(2R)-2-hydroxy-2-phenylethyl]-2H-indazol-4-yl}-5-methyl-1H-pyrazol-4-yl)propan-1-ol] | 24 | 11.4 |
